# Measurements reported in patent US9737493B2, “Compositions and methods for modulating DNMT1 inhibitor activity” (University of Louisville Research Foundation, Inc., priority 2012, dated 2017).
# Tests used:
# [1] = DTNB assay for free sulfhydryls; conditions: 5 mM XB05; 0.25 mM Cys or GSH, pH 8, 30 min, 37° C.
# Method: FIG. 12: XB05 is Weakly Reactive with Thiols In Vitro: 0.25 mM Cysteine (Cys, top panel) or glutathione (GSH, bottom panel) were incubated with XB05, diethyl maleate (DEM), or maleimide at the indicated concentrations, or with an equivalent amount of vehicle (DMSO), for 30 min at 37° C. 5,5′-Dithiobis-2-nitrobenzoic acid (DTNB) assays were conducted as described in Methods. Absorbance for triplicate wells was determined at 412 nm. Points represent the mean and standard deviation for triplicate wells. Data shown are representative of two independent experiments.
# Dithiobis-2-nitrobenzoic Acid (DTNB) Assay for Free Sulfhydryls. For each experiment, a 20× working solution of DTNB (2 mM DTNB, 50 mM sodium acetate in 100 mM Tris-HCl, pH 8.0) and 2× solutions of cysteine and GSH (0.5 mM in 100 mM Tris-HCl, pH 8.0) were freshly prepared. 10 mM stock solutions of XB05, diethyl maleate and maleimide were prepared in 100% DMSO, and subsequently serially diluted to 2× working solutions in 100 mM Tris-HCl, pH 8.0. 100 μl each of thiol compounds (final concentration 0.25 mM) and thiol-reactive compounds (final concentrations 0.05-5 mM) or vehicle control (DMSO) were added in duplicate to a 96-well plate and allowed to incubate at 37° C. for 30 minutes. […] Absorbance was read on a Biotek HT Synergy Plate reader (Winooski, Vt.) at 412 nm.
# Hs27 cells = assay: Western blot for Nrf2 in nuclear extracts; assay type: cell-based, human; conditions: Hs27, 1 μM, 8 or 24 h
# Method: (§1) FIG. 8: XB05 Modulates Cellular Stress Responses. (A) A luminescence-based assay for reduced glutathione (GSH) content in cells treated 24 h with XB05 (1 μM for U937 and Hs27, or 2 μM for A549), in the absence or presence of 5 mM GSH. Some cells were treated with buthionine sulfoximine (BSO, 200 μM) plus diethyl maleate (DEM, 1 mM) for 3 h as a positive control for GSH depletion. Bar graph indicates mean+/−SEM from three independent experiments. […] (C) Western blot for Nrf2 in nuclear extracts from cells treated as in part A for either 8 h or 24 h. Membranes were stripped and reprobed for Ku-70 as a loading control. (D) Western blot for phospho-eIF2α (Ser51), total eIF2-α, BiP/Grp78, and GAPDH (loading control) in whole cell extracts from cell lines treated as indicated for 24 h with concentrations of XB05 described in part A. Thapsigargin (TG, 2 μM) was used as a positive control for induction of endoplasmic reticulum (ER) stress.
# (§2) Cell Extracts. […] Nuclear cells extracts were isolated using the NE-PER Nuclear and Cytoplasmic Extraction Kit (Thermo Scientific, Rockford, Ill.), per the manufacturer's protocol. For total cell extract, cells were lysed in RIPA buffer (Thermo Scientific) containing protease inhibitor cocktail III and phosphatase inhibitor cocktail (Calbiochem, Billerica, Mass.) for 5 min at 4° C., and then cleared by centrifugation at 16,000 g for 10 min at 4° C. All protein concentrations were determined using the DC Protein Assay™ kit (BioRad, Hercules, Calif.).
# (§3) Western Blotting. […] Proteins were detected using the following primary antibody concentrations: PARP-1 (1:1000), cleaved caspase-3 (1:1000), γ-H2AX (Ser139) ([…]), phospho-eIF2α (Ser51) (1:1000), eIF2α (1:1000), Bip (1:1000), Nrf2 (1:1000), Ku-70 (1:1000) and GAPDH (1:1000). […] Where indicated, band intensities were quantified using the UN-SCAN-IT Gel digitizing software (Silk Scientific, Orem Utah) and normalized to vehicle control.
# U937 cells = assay: Western blot for Nrf2 in nuclear extracts; assay type: cell-based, human; conditions: U937, 1 μM, 8 or 24 h
# Method: as §1, §2, §3
# A549 cells = assay: Western blot for Nrf2 in nuclear extracts; assay type: cell-based, human; conditions: A549, 2 μM, 8 or 24 h
# Method: as §1, §2, §3
# [2] = test system: U937 myeloid leukemia cells; assay: MTT cell proliferation assay; assay type: cell-based, human
# Method: (§4) Cell Proliferation Assays. The antiproliferative activity of XB05 was tested using a previously published 3-(4,5-dimethylthiazol-2-yl)-2,5-diphenyltetrazolium bromide (MTT) assay protocol (Girvan et al., “AGRO100 inhibits activation of nuclear factor-kappaB (NF-kappaB) by forming a complex with NF-kappaB essential modulator (NEMO) and nucleolin” Molecular Cancer Therapeutics (2006) Vol. 5, No. 7, pp. 1790-1799). Briefly, cells were seeded in quadruplicate wells in 96-well plates and allowed to adhere overnight. […] Plates were incubated with XB05 for 72 h, during which the cell culture medium was not changed. Cell viability was determined and the background corresponding to medium alone (no cells) was subtracted. Data were analyzed as described in the Brief Description of the Drawings.
# (§5) XB05 has Cancer-Selective Antiproliferative Activity. XB05 was tested to determine its antiproliferative activity in a variety of human cell lines that are derived from malignant tissues or from non-malignant (immortalized but not transformed) cells and listed in FIG. 1B. As described in Materials and Methods, cells were treated with varying concentrations of XB05 for 72 h and evaluated using the MTT cell proliferation assay.
# [3] = test system: Hs27 non-malignant skin fibroblasts; assay: MTT cell proliferation assay; assay type: cell-based, human; conditions: Hs27, MTT 72 h
# Method: as §4, §5
# [4] = test system: A549 non-small cell lung cancer cells; assay: MTT cell proliferation assay; assay type: cell-based, human; conditions: A549, MTT 72 h
# Method: as §4, §5
structure (smiles),measurement,setting,value
CCCCCC(O)C#CC(F)(F)Br (centres unmarked) [XB05],depletion of free thiols,[1],40-50%
same,nuclear Nrf2,Hs27 cells,no change
same,nuclear Nrf2,U937 cells,decrease in nuclear Nrf2
same,nuclear Nrf2,A549 cells,slight increase in nuclear levels of Nrf2
same,GI50,"[2]; Homo sapiens, U-937, U937, 72 h",< 500 nM
same,sensitivity to XB05,"[2]; U937, MTT 72 h",high sensitivity
same,sensitivity to XB05,[3],low sensitivity
same,sensitivity to XB05,[4],moderate sensitivity
